Results reported in PubChem BioAssay AID330 (DTP/NCI, 2004).
Where “and” joins values, the source holds several entries; their conditions need not be identical. Equal entries are not always repeated. Inconclusive results and toxic doses are left out.

System: P388 leukemia ip, CD2F1 mice, survival T/C
Experiment: NCI In Vivo Anticancer Drug Screen. Data for tumor model P388 Leukemia (intraperitoneal) in CD2F1 (CDF1) mice
Conditions: endpoint: median survival time, higher = longer survival
In short: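 Mice carrying the transplanted tumor received test compound or vehicle. Survival was recorded in each group, and the value is the treated-group measurement divided by that of the vehicle-treated control group.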

[1] = dose: 50.0 mg/kg/injection, schedule: Q01DX009 (ip), vehicle: saline
[2] = dose: 100.0 mg/kg/injection, schedule: Q01DX009 (ip), vehicle: saline
[3] = dose: 200.0 mg/kg/injection, schedule: Q01DX009 (ip), vehicle: saline
[4] = dose: 60.0 mg/kg/injection, schedule: Q01DX005 (ip), vehicle: saline with Tween-80
[5] = dose: 120.0 mg/kg/injection, schedule: Q01DX005 (ip), vehicle: saline with Tween-80
[6] = dose: 240.0 mg/kg/injection, schedule: Q01DX005 (ip), vehicle: saline with Tween-80
[7] = dose: 50.0 mg/kg/injection, schedule: Q01DX005 (ip), vehicle: saline
[8] = dose: 100.0 mg/kg/injection, schedule: Q01DX005 (ip), vehicle: saline with Tween-80
[9] = dose: 200.0 mg/kg/injection, schedule: Q01DX005 (ip), vehicle: saline with Tween-80
[10] = dose: 50.0 mg/kg/injection, schedule: Q01DX005 (ip), vehicle: Klucel (hydroxypropylcellulose) (HPC)
[11] = dose: 100.0 mg/kg/injection, schedule: Q01DX005 (ip), vehicle: Klucel (hydroxypropylcellulose) (HPC)
[12] = dose: 200.0 mg/kg/injection, schedule: Q01DX005 (ip), vehicle: Klucel (hydroxypropylcellulose) (HPC)
[13] = dose: 50.0 mg/kg/injection, schedule: Q01DX009 (ip), vehicle: Klucel (hydroxypropylcellulose) (HPC)
[14] = dose: 100.0 mg/kg/injection, schedule: Q01DX009 (ip), vehicle: Klucel (hydroxypropylcellulose) (HPC)
[15] = dose: 200.0 mg/kg/injection, schedule: Q01DX009 (ip), vehicle: Klucel (hydroxypropylcellulose) (HPC)
[16] = dose: 12.5 mg/kg/injection, schedule: Q01DX005 (ip), vehicle: saline
[17] = dose: 25.0 mg/kg/injection, schedule: Q01DX005 (ip), vehicle: saline

`Nc1ccc2nnnn2n1` was tested, and the T/C [1] was 100 % of control, the T/C [2] was 98 % of control and the T/C [3] was 98 % of control.
For `O=C1c2ccccc2C(=O)N1C1Cc2nc3ccccc3n2C1=O` (configuration not stated), the T/C [4] was 98 % of control, the T/C [5] was 93 % of control and the T/C [6] was 89 % of control.
In the case of `COc1ccc(CN2CCC[S+]2C)cc1` (configuration not stated), the T/C [7] is reported as 95 % of control.
`CC(C1SC(=S)NC1=O)C1SC(=S)NC1=O` (configuration not stated) was tested, and the T/C (dose: 50.0 mg/kg/injection, schedule: Q01DX005 (ip), vehicle: saline with Tween-80) was 86 % of control, the T/C [8] was 87 % of control and the T/C [9] was 87 % of control.
In the case of `c1ncn(C23CC4CC(CC(C4)C2)C3)n1`, the T/C (dose: 1.56 mg/kg/injection, schedule: Q01DX001 (ip), vehicle: Klucel (hydroxypropylcellulose) (HPC)) is reported as 106 % of control, the T/C (dose: 3.12 mg/kg/injection, schedule: Q01DX001 (ip), vehicle: Klucel (hydroxypropylcellulose) (HPC)) is reported as 104 % of control and the T/C (dose: 6.25 mg/kg/injection, schedule: Q01DX001 (ip), vehicle: Klucel (hydroxypropylcellulose) (HPC)) is reported as 107 % of control and 96 % of control.
For `CC(=O)Oc1nnc(OC(C)=O)n1-c1ccccc1`, the T/C [10] was 114 % of control, the T/C [11] was 111 % of control and the T/C [12] was 115 % of control.
With `Cc1cc2c(cc1C)C(=O)c1cc3c(cc1C2=O)OCO3` the T/C [4] was 94 % of control, the T/C [5] was 91 % of control and the T/C [6] was 89 % of control.
With `Cc1cc2cc3c4c(nn5cnnc5c4c2o1)-c1ccccc1CC3` the T/C [10] was 101 % of control, the T/C [11] was 104 % of control and the T/C [12] was 98 % of control.
With `CCCCCCSCN(CC)CC` the T/C [1] was 103 % of control, the T/C [2] was 107 % of control and the T/C [3] was 112 % of control.
With `CSc1c(C(C)(C)O)cc(C(C)(C)C)cc1C(C)(C)O` the T/C [13] was 93 % of control, the T/C [14] was 93 % of control and the T/C [15] was 94 % of control.
`CC(=O)ON(C(=O)c1ccccc1)c1ccccc1` was tested, and the T/C [4] was 104 % of control, the T/C [5] was 102 % of control and the T/C [6] was 99 % of control.
`CC(C)CCCCC(O)C1C(=O)OCC1CO` (configuration not stated) was tested, and the T/C (dose: 7.25 mg/kg/injection, schedule: Q01DX005 (ip), vehicle: distilled water + alcohol) was 101 % of control, the T/C (dose: 14.5 mg/kg/injection, schedule: Q01DX005 (ip), vehicle: distilled water + alcohol) was 104 % of control and the T/C (dose: 29.0 mg/kg/injection, schedule: Q01DX005 (ip), vehicle: distilled water + alcohol) was 111 % of control. The T/C (dose: 58.0 mg/kg/injection, schedule: Q01DX005 (ip), vehicle: distilled water + alcohol) was 105 % of control.
In the case of `O=c1c2cc3c(cc2c2cc([N+](=O)[O-])cc4c2n1CC4)OCO3`, the T/C (dose: 25.0 mg/kg/injection, schedule: Q01DX009 (ip), vehicle: other) is reported as 98 % of control, the T/C (dose: 50.0 mg/kg/injection, schedule: Q01DX009 (ip), vehicle: other) is reported as 92 % of control and the T/C (dose: 100.0 mg/kg/injection, schedule: Q01DX009 (ip), vehicle: other) is reported as 90 % of control. For the same compound, the T/C (dose: 200.0 mg/kg/injection, schedule: Q01DX009 (ip), vehicle: other) was 100 % of control and the T/C (dose: 400.0 mg/kg/injection, schedule: Q01DX009 (ip), vehicle: other) was 104 % of control.
For `NNC(=O)c1cnn(-c2ccc(N(CCO)CCO)nn2)c1N`, the T/C (dose: 75.0 mg/kg/injection, schedule: Q01DX005 (ip), vehicle: other) was 107 % of control, the T/C (dose: 150.0 mg/kg/injection, schedule: Q01DX005 (ip), vehicle: other) was 107 % of control and the T/C (dose: 250.0 mg/kg/injection, schedule: Q01DX005 (oral), vehicle: water) was 104 % of control. The T/C (dose: 300.0 mg/kg/injection, schedule: Q01DX005 (ip), vehicle: other) was 93 % of control, the T/C (dose: 500.0 mg/kg/injection, schedule: Q01DX005 (oral), vehicle: water) was 110 % of control and the T/C (dose: 1000.0 mg/kg/injection, schedule: Q01DX005 (oral), vehicle: water) was 103 % of control.
For `CCCCOC(=O)C1C(C(=O)OCCCC)C2(Cl)C(Cl)=C(Cl)C1(Cl)C2(Cl)Cl` (configuration not stated), the T/C [14] was 97 % of control, the T/C [15] was 104 % of control and the T/C (dose: 400.0 mg/kg/injection, schedule: Q01DX009 (ip), vehicle: Klucel (hydroxypropylcellulose) (HPC)) was 111 % of control.
With `Cn1c2c(c3cc(Cl)cc(Cl)c31)-c1ncncc1CC2` the T/C (dose: 100.0 mg/kg/injection, schedule: Q04DX002 (ip), vehicle: saline with Tween-80) was 98 % of control, the T/C (dose: 200.0 mg/kg/injection, schedule: Q04DX002 (ip), vehicle: saline with Tween-80) was 98 % of control and the T/C (dose: 400.0 mg/kg/injection, schedule: Q04DX002 (ip), vehicle: saline with Tween-80) was 95 % of control.
In the case of `C=CCc1ccc(Oc2cc(CC=C)cc(O)c2O)cc1`, the T/C (dose: 25.0 mg/kg/injection, schedule: Q01DX005 (ip), vehicle: Klucel + Tween-80) is reported as 101 % of control, the T/C (dose: 50.0 mg/kg/injection, schedule: Q01DX005 (ip), vehicle: Klucel + Tween-80) is reported as 104 % of control and the T/C (dose: 100.0 mg/kg/injection, schedule: Q01DX005 (ip), vehicle: Klucel + Tween-80) is reported as 106 % of control. For the same compound, the T/C (dose: 200.0 mg/kg/injection, schedule: Q01DX005 (ip), vehicle: Klucel + Tween-80) was 113 % of control.
In the case of `CCCCN(CCCC)CC(O)c1cc(-c2ccc(Cl)cc2)nc2c(Cl)cc(Cl)cc12` (configuration not stated), the T/C (dose: 60.0 mg/kg/injection, schedule: Q01DX005 (ip), vehicle: Klucel + Tween-80) is reported as 100 % of control and the T/C (dose: 120.0 mg/kg/injection, schedule: Q01DX005 (ip), vehicle: Klucel + Tween-80) is reported as 88 % of control.
With `Cc1cc(Cl)cc2c1NC(=O)C2(O)C/C(=N/NC(=O)CC#N)c1cccc([N+](=O)[O-])c1` (configuration not stated) the T/C [4] was 93 % of control, the T/C [8] was 103 % of control and the T/C [9] was 101 % of control.
In the case of `O=C(OCCOCCN1CCCCC1)C1c2ccccc2Sc2ccc(Cl)cc21` (configuration not stated), the T/C [16] is reported as 100 % of control, the T/C [17] is reported as 105 % of control and the T/C [7] is reported as 100 % of control and 98 % of control.
`CC(=NCCN=C(C)c1ccccc1O)c1ccccc1O` was tested, and the T/C [13] was 105 % of control, the T/C [14] was 114 % of control and the T/C [15] was 115 % of control.
With `Nc1nc(=S)c2ncn(C3CC(O)C(CO)O3)c2[nH]1` (configuration not stated) the T/C (dose: 10.0 mg/kg/injection, schedule: Q01DX009 (ip), vehicle: Klucel (hydroxypropylcellulose) (HPC)) was 118 % of control, the T/C [16] was 118 % of control and the T/C (dose: 12.5 mg/kg/injection, schedule: Q01DX005 (iv), vehicle: saline) was 101 % of control. The T/C (dose: 12.5 mg/kg/injection, schedule: Q01DX009 (ip), vehicle: Klucel (hydroxypropylcellulose) (HPC)) was 122 % of control, the T/C (dose: 20.0 mg/kg/injection, schedule: Q01DX009 (ip), vehicle: Klucel (hydroxypropylcellulose) (HPC)) was 95 % of control and the T/C [17] was 109 % of control. For the same compound, the T/C (dose: 25.0 mg/kg/injection, schedule: Q01DX005 (iv), vehicle: saline) was 102 % of control, the T/C (dose: 25.0 mg/kg/injection, schedule: Q01DX009 (ip), vehicle: saline sonified) was 168 % of control and the T/C (dose: 25.0 mg/kg/injection, schedule: Q01DX009 (ip), vehicle: saline) was 117 % of control. For the same compound, the T/C [7] was 109 % of control, the T/C (dose: 50.0 mg/kg/injection, schedule: Q01DX005 (iv), vehicle: saline) was 102 % of control and 106 % of control and the T/C [13] was 118 % of control. For the same compound, the T/C (dose: 50.0 mg/kg/injection, schedule: Q01DX009 (ip), vehicle: saline with Tween-80) was 162 % of control, the T/C (dose: 100.0 mg/kg/injection, schedule: Q01DX005 (iv), vehicle: saline) was 103 % of control and 108 % of control and the T/C [14] was 113 % of control. For the same compound, the T/C [2] was 169 % of control, the T/C (dose: 200.0 mg/kg/injection, schedule: Q01DX005 (ip), vehicle: saline) was 153 % of control and the T/C (dose: 200.0 mg/kg/injection, schedule: Q01DX005 (iv), vehicle: saline) was 122 % of control. For the same compound, the T/C [3] was 114 % of control.
For `O=[N+]([O-])c1cc2[nH]cnc2c([N+](=O)[O-])c1Nc1ccc(O)cc1`, the T/C (dose: 100.0 mg/kg/injection, schedule: Q04DX003 (ip), vehicle: saline with Tween-80) was 87 % of control, the T/C (dose: 200.0 mg/kg/injection, schedule: Q04DX003 (ip), vehicle: saline with Tween-80) was 95 % of control and the T/C (dose: 400.0 mg/kg/injection, schedule: Q04DX003 (ip), vehicle: saline with Tween-80) was 101 % of control.
In the case of `O=C(CCl)N1C(=O)NC(c2ccc(Cl)cc2)(c2ccc(Cl)cc2)C1=O`, the T/C (dose: 5.0 mg/kg/injection, schedule: Q04DX003 (ip), vehicle: other) is reported as 105 % of control, the T/C (dose: 10.0 mg/kg/injection, schedule: Q04DX003 (ip), vehicle: other) is reported as 116 % of control and the T/C (dose: 20.0 mg/kg/injection, schedule: Q04DX003 (ip), vehicle: other) is reported as 108 % of control and 123 % of control.
